The subject of test [1] is HT-29-D4 cells. The experiment in a line: Cytoskeletal organization and ultrastructure of HT-29-D4 cells (confocal, electron microscopy). It counts as cell-based, human. As to the method: HT-29-D4 cells grown on glass coverslips were fixed with 4% paraformaldehyde (w/v) in 0.1M phosphate buffer, pH 7.4, for 30 min at room temperature. The cells were then treated with 50 mM […] (15 min), rinsed with phosphate buffer containing 1% bovine serum albumin (BSA), and permeabilized with 0.2% Triton X-100 in phosphate buffer containing 5% BSA (30 min). For α-tubulin staining, coverslips were incubated in a humid atmosphere at 4° C. for 4 hr with the primary antibody (5 μg/ml) in phosphate buffer containing 1% BSA. After washing, the cells were incubated with fluoresecin-conjugated secondary antibodies for 90 min at 4° C. The coverslips were mounted in a Mowiol solution and analyzed by confocal microscopy (Leica TCS inverted laser scanning microscope) as previously reported (Delézay et al., 1997b). […]
The α-tubulin labeling was particularly intense in the medium part of the cells where it formed a complex network of microtubules surrounding the nucleus (a, b). […] Therefore, the presence of such cysts in HT-29-D4 cell monolayer was carefully analyzed by single staining with rhodamine-plalloidin. […]
Next, the ultrastructural changes induced by HIV-1 in differentiated HT-29-D4 cells was analyzed. […] The main ultrastructural change during incubation with virions or gp120 was the presence of intra- and inter-cellular lumina that could be detected in about 5% of the cells. […]

In test [2] the test system is apical sodium/glucose cotransporter (SGLT1). The experiment in a line: Sodium-dependent glucose transport activity (ΔIsc after α-methylglucose) in HT-29-D4 cells. In kind it is cell-based, human. To be noted: for ΔIsc after α-methylglucose treatment: 50 nM, 3 mM α-methylglucose. The method, then: HT-29-D4 cells were cultured in two-compartment cell culture chambers on a polycarbonate filter (Transwell-clear, Catalog No. 3450, Costar) and analyzed for electrical parameters in modified custom made Ussing chambers as previously reported (Fantini et al., 1989). The chamber was maintained at 37° C. on a hot plate. Apical and basal compartments were filled with electrophysiological medium: 137 mM NaCl, 5.36 mM KCl, 0.4 mM Na2HPO4, 0.8 mM MgCl2, 1.8 mM CaCl2, 20 mM N-2-hydroxyethylpiperazine-N′-2-ethanesulfonic acid (HEPES), pH 7.4. Transepithelial potential difference was measured with Ag electrodes and continuously recorded using a voltage clamp unit (Physiologic Instrument). Bipolar current pulses (20 μA for 2 s, every 30 s) were passed through Ag electrodes to measure the transepithelial resistance (TEER), which was determined according to the Ohm's law (Delézay et al., 1997b). The sodium-dependent electrogenic glucose transport activity was measured as an increase of short-circuit current (ΔIsc) following apical incubation of HT-29-D4 cells with the nonmetabolizable analog of glucose α-methylglucose (Fantini et al., 2000a). Except when indicated, purified gp120s were incubated in the apical compartment of the cell culture chamber (total volume 1.5 ml instead of 10 ml for the basal compartment of the Ussing chamber device unit).
Differentiated HT-29-D4 cells cultured in Transwell chambers were either not treated (control) or treated with 50 nM of purified gp120 (IIIB isolate) for the time indicated in serum-containing culture medium. Transepithelial resistance (TEER) values and short-circuit current variations (ΔIsc) after incubation with 3 mM α-methylglucose (sodium-dependent glucose transport activity) were measured as described in Materials and Methods. The results are expressed as the mean SD of 4 separate experiments.

The subject of test [3] is HT-29-D4 cells. The experiment in a line: Transepithelial resistance (TEER) of differentiated HT-29-D4 cells. In kind it is cell-based, human. The conditions noted are these: for TEER: 50 nM, serum-containing medium, mean SD of 4 experiments; for decrease of transepithelial resistance: after 16 hr.
Test [4] in a line: GalCer-gp120 interactions at the air-water interface (surface pressure). The conditions noted are these: gp120 5 nM in aqueous subphase. In kind it is binding. The method, then:
A monomolecular film of GalCer was prepared at the air-water interface and gp120 purified from either IIIB (full squares), SEN (open circles) or 89.6 (full circles) isolates was added in the aqueous subphase at a concentration of 5 nM. The kinetics of the surface pressure increase induced by the viral glycoproteins are shown.
Galactosylceramide with an α-hydroxylated fatty acid (referred to as GalCer throughout this study) was either prepared from bovine brain (Sigma) or purified from HT-29-D4 membrane rafts (Fantini et al., 2000a). The surface pressure was measured with a microtensiometer (Kibron Inc., Finland) specially designed for studying protein-lipid interactions (Fantini et al., 2000a). The experiments were carried at 25° C. out in a laboratory equipped with a filtered air supply. A solution of GalCer was prepared extemporaneously in hexane:chloroform:methanol, 11:5:4 (v:v:v) at a concentration of 1 mg/ml. The lipid was carefully spread onto the meniscus of a pure water subphase (800 μl). The proteic ligand (GPR15/Bob peptides or HIV-1 gp120) was injected into the subphase with a 10 μl Hamilton syringe. The surface pressure was continuously measured as a function of time until reaching equilibrium corresponding to the maximal surface presure increase (Δπmax) expressed in mN/m.
In a recent study, it was shown that the interaction between GalCer and gp120 purified from HIV-1(IIIB) was very efficient, whereas gp120s from 89.6 and SEN isolates interacted very weakly (Hammache et al., 1998). The kinetics of this interaction are an important physicochemical parameter allowing the direct comparison of GalCer recognition by various gp120s. In the experiment shown in FIG. 11, gp120 purified from IIIB, SEN, or 89.6 was injected underneath a monomolecular film of GalCer at the air-water interface. The GalCer film mimics the topology of a GalCer raft as it is organized in the external leaflet of the plasma membrane. For this reason, the Langmuir film balance technique is one of the most sensitive and reliable for studying protein-glycolipid interactions (Maggio et al., 1994). […] The surface increase indicates a condensing effect of the gp120 on the lipidic film due to its interaction with GalCer molecules (Hammache et al., 1998). […] At this time however, the level of interaction indicated by the absolute increase of the surface pressure was identical to the one of gp120(IIIB). […] The GalCer-binding capacity of gp120(SEN) was reevaluated and shown to occur much more slowly, but not less efficiently, than of gp120(IIIB).

As to “gp120(IIIB): surface envelope glycoprotein purified from HIV-1(IIIB) by lectin affinity chromatography”, the “cells with cysts / lumina” value in the test on HT-29-D4 cells [1] (1 hr exposure) is listed as “about 5%”. Also, the α-tubulin staining entry in the test with HT-29-D4 cells [1] (1 hr of incubation) is on record as “dramatic decrease”. Besides, the “ΔIsc after α-methylglucose treatment” value came to 0.35 ± 0.07 μA · cm^−2 in test [2] (16 hr) and 0.29 ± 0.11 μA · cm^−2 in test [2] (48 hr). Moreover, the “reduction of SGLT1 electrogenic activity” value in test [2] (after 16 hr) was found to be 70%. Moreover, the “decrease of SGLT1 activity” value in test [2] (after 48 hr) came out at 80%. For the same substance, the TEER in the test with HT-29-D4 cells [3] (16 hr) is listed as 300 ± 108 Q · cm^2; in the test with HT-29-D4 cells [3] (48 hr), 320 ± 267 Q · cm^2. In addition, the “TEER enhancement (relative TEER)” value with HT-29-D4 cells [3] (20 min after addition, electrophysiological medium, n=3) is 1.60±0.17. Besides, the “decrease of transepithelial resistance” value in the test with HT-29-D4 cells [3] is on record as “greater than 80%”; in the test on HT-29-D4 cells [3] (listed as gp120 (IIIB isolate)), 81%. For the same substance, the “decrease of TEER” value with HT-29-D4 cells [3] (after 48 hr) is listed as 74%. For the same substance, in the test on HT-29-D4 cells [3] (continuous recording, electrophysiological medium), the “time at which TEER had decreased to null values” came out at 12 h. Besides, the “interaction with GalCer film, in words” value in test [4] was “exponential increase in the surface pressure”. In test [4], the “time to equilibrium of surface pressure” value stood at 45 min.

Source of the values: US20050042747A1, “Hivgp120-induced bob/gpr15 activation” (priority 2001, published 2005).
